Converted amounts (≈) assume the structure as drawn.
Experiments:
Details in all cases: variant bovis BCG
[1] = test system: Mycobacterium tuberculosis; experiment: Antibiofilm activity against Mycobacterium bovis BCG after 5 weeks; format: functional
[2] = test system: Mycobacterium tuberculosis; experiment: Antimycobacterial activity against Mycobacterium bovis BCG; format: functional
[3] = test system: Mycobacterium tuberculosis; experiment: Antibiofilm activity against Mycobacterium bovis BCG; format: functional, organism-based

Row | Compound | MIC [2] | also measured
1 | CC(C)=C/C=C\[C@H](C)[C@H]1CC[C@]2(C)C[C@H]3[C@H](C(=O)C[C@@]3(C)O)/C(C=O)=C\C[C@@H]12 | – | MIC [1]: 8.2 µM (≈ 3.15 µg/mL)
2 | COC(=O)N[C@H]1[C@@H](C)O[C@@H](O[C@H]2C/C=C(\C)[C@@H]3C=C[C@@H]4[C@@H](O[C@@H]5C[C@@H](O[C@@H]6C[C@@H](O)[C@@H](O[C@H]7C[C@@H](C)[C@H](OC)[C@H](O)C7)[C@H](C)O6)[C@@H](O)[C@H](C)O5)[C@@H](C)C[C@H](C)[C@H]4[C@]3(C)C(=O)C3=C(O)[C@@]4(C[C@@H](C)C(CO)=C[C@H]4/C=C/2C)OC3=O)C[C@]1(C)N | 1.35 µM (≈ 1.56 µg/mL) | –
3 | C=CC(C)(C)c1[nH]c2ccccc2c1/C=c1\[nH]c(=O)c2n(c1=O)CCC=2C1=c2c(=O)[nH]/c(=C\c3c(C(C)(C)C=C)[nH]c4ccccc34)c(=O)n2CC1 | 9.03 µM (≈ 6.26 µg/mL) | –
4 | COC(=O)N[C@H]1[C@@H](C)O[C@@H](O[C@H]2C/C=C(\C)[C@@H]3C=C[C@@H]4[C@@H](O[C@@H]5C[C@@H](O[C@@H]6C[C@@H](O)[C@@H](O[C@H]7C[C@@H](C)[C@H](OC)[C@H](O)C7)[C@H](C)O6)[C@@H](O)[C@H](C)O5)[C@@H](C)C[C@H](C)[C@H]4[C@]3(C)C(=O)C3=C(O)[C@@]4(C[C@@H](C)C(COC(C)=O)=C[C@H]4/C=C/2C)OC3=O)C[C@]1(C)N | 1.3 µM (≈ 1.56 µg/mL) | –
5 | COC(=O)N[C@H]1[C@@H](C)O[C@@H](O[C@H]2C/C=C(\C)[C@@H]3C=C[C@@H]4[C@@H](O[C@@H]5C[C@@H](O[C@@H]6C[C@@H](O)[C@@H](O[C@H]7C[C@@H](C)[C@H](OC)[C@H](O)C7)[C@H](C)O6)[C@@H](O)[C@H](C)O5)[C@@H](C)C[C@H](C)[C@H]4[C@]3(C)C(=O)C3=C(O)[C@@]4(C[C@@H](C)C(CO)=C[C@H]4/C=C/2C)OC3=O)C[C@]1(C)[N+](=O)[O-] | 0.66 µM (≈ 0.782 µg/mL) | –
6 | COc1ccc2c(c1)CC1=C2[C@H](O)[C@@]2(O)C(=O)N3CCC[C@H]3C(=O)N2[C@H]1C=C(C)C | 2.41 µM (≈ 0.989 µg/mL) | –
7 | CC(C)=C1C[C@H]2C(C)(C)[C@@]3(Br)C(=O)c4c(O)cc(O)cc4[C@]2(C1)C3=O | – | IC50 [3]: 220 to 13900 nM
8 | COc1cc(O)c2c(c1)[C@@]13CC(=C(C)C)C[C@H]1[C@](C)(CCC=C(C)C)[C@@](Br)(C2=O)C3=O | – | IC50 [3]: 640 to 10300 nM
9 | COc1cc(OC)c2c(c1)[C@@]13CC(=C(C)C)C[C@H]1[C@](C)(CCC=C(C)C)[C@@](Br)(C2=O)C3=O | – | IC50 [3]: 160 to 2500 nM
10 | C1=C2CCCC/C=C\C=C\CCN3CC[C@@H]4[C@H](CCCCCC/C=C\C=C/CCN(C2)C[C@H]14)C3 (relative stereo) [HALICYCLAMINE A] | 2.16 to 10.8 µM (≈ 1 to 5.01 µg/mL) | –
11 | O=C1N[C@@H](Cc2c[nH]c3ccccc23)C(=O)N2CCC[C@@H]12 [BREVIANAMIDE F] | 44.2 µM (≈ 12.5 µg/mL) | –
12 | NNC(=O)c1ccncc1 [ISONIAZID] | 0.36 µM (≈ 0.0494 µg/mL) | –
13 | COC(=O)Nc1coc(C(=O)Nc2coc(C(=O)NCCc3ccc(O)cc3)c2)c1 [PROXIMICIN B] | 15.1 µM (≈ 6.25 µg/mL) | –
14 | CO[C@H]1/C=C/O[C@@]2(C)Oc3c(C)c(O)c4c(O)c(c(/C=N/N5CCN(C)CC5)c(O)c4c3C2=O)NC(=O)/C(C)=C\C=C\[C@H](C)[C@H](O)[C@@H](C)[C@@H](O)[C@@H](C)[C@H](OC(C)=O)[C@@H]1C [RIFAMPIN] | – | IC50 [3]: 1220 nM

From ChEMBL document CHEMBL4400517, “Marine natural products as potential anti-tubercular agents” (Eur J Med Chem, 2019)
